Laboratory results from paper PMC10945559, “Forgotten Natural Products: Semisynthetic Development of Blasticidin S As an Antibiotic Lead” (ACS Medicinal Chemistry Letters, 2024).
≈ marks a conversion by molar mass, not a printed value. Where two headings read alike, the source gives them in different places. Marks after values point to notes of the source that are not given here.

Experiments:
Pseudomonas aeruginosa = assay: Broth microdilution antibacterial assay; type: cell-based; conditions: for Selectivity index (CC50/IC50): MRC-5 CC50 / P. aeruginosa IC50; for MIC / IC50: Pseudomonas aeruginosa; for IC50: average of two biological replicates ± S.D., read-out: IC50
Protocol: (§1) Antibacterial Assay Procedure
(§2) Broth Microdilution Assays
(§3) Media and solutions were autoclaved or sterile filtered prior to use and manipulations were carried out in a laminar flow hood. Antibacterial testing was performed in polypropylene 96 -well flat bottom plates. The minimal inhibitory concentration of blasticidin S ( 1) hydrochloride, P10 (2), and derivatives 15–22 were assessed against Staphylococcus aureus ΔNorA, S. aureus 8810, methicillin-resistant S. aureus (MRSA) ATCC 43300, Enterococcus faecalis ATCC 29212, vancomycin-resistant Enterococcus, Klebsiella pneumoniae ATCC 29665, Pseudomonas aeruginosa, and Acinetobacter baumannii ATCC 17978 using serial dilutions. Doxycycline (Gold Bio) as a positive control and the vehicle as a negative control. Stock solutions of each compound were prepared at 5.12 mg/mL in 50% DMSO/water and serially diluted in 50% DMSO/water to create master plates. From the master plates, 10 μL of each dilution was applied to test plates using a Bravo automated liquid transfer system (Agilent). Bacteria previously grown overnight (37 °C, 120 – 200 RPM), in LB broth were diluted to an OD600 of 0.0 5 in cation-adjusted Mueller-Hinton broth, grown to an OD600 of ~0.5, and diluted to an OD600 of 0.004 in cation-adjusted Mueller-Hinton broth. These diluted cultures were applied to the test plates (190 μL per test well) resulting in final concentrations of the test compounds of 256–2 μg/mL. Growth controls (wells with inoculated media but no vehicle or test compounds) were included to assess any potential toxicity from the vehicle. The plates were incubated at 37 °C for 16–18 h, except for VRE and E. faecalis, which were incubated at 37 °C for 24 h. Inhibition was determined by measuring the optical density at 600 nm (OD600) with a Cytation 3 plate reader (BioTek). The optical density measurements were normalized to the positive and negative controls and the vehicle and growth controls were compared and found to be indistinguishable, indicating no toxicity from the vehicle used. The MIC was the lowest concentration that inhibited >90% of growth. Two biological replicates were performed in duplicate. MIC values are reported […]
(§4) as a range from biological replicates. Inhibition curves were generated using Prism (GraphPad).
(§5) The IC50 values reported in Table 2 are the average of the two biological replicates ± standard […]
(§6) Cytotoxicity Assay Procedure
(§7) Human lung fibroblast cells, MRC -5 (CCL-171), were cultured at 37℃ with 5% CO2 and were plated at 5000 cells/well in a 96 -well plate. Compounds 1, 2, and 15-22 were initially prepared at concentrations of 5.12 mg/mL in a vehicle of 50% DMSO. Dilutions of the compounds (4 – 512 μg/mL) were then prepared in growth medium containing Dulbecco’s modified Eagle’s medium (DMEM) with high glucose, L -glutamine, and sodium pyruvate supplemented with 10% fetal bovine serum (FBS), 1% non -essential amino acids, and 0.1% gentamicin sulfate, and 25mM HEPES. The vehicle (50% DMSO) was also prepared via the sa me dilution series to serve as a control. Growth media was removed from the cells and replaced with the same volume of each compound dilution. Cells were incubated for 24 h , after which CellTiter 96® AQueous One Solution Reagent was added to each well as recommended by the manufacturer’s protocol (Promega CellTiter 96 AQueous One Solution Cell Proliferation Assay) and further incubated for 4 h. After incubation, absorbance was measured at 490 nm on an Infinite M plex multimode microplate reader with i -control Tecan software. Viability was calculated by subtracting media only absorbance values and normalizing to the vehicle control at each concentration. The presented data is one assay performed in triplicate that is representative of multiple trials. Data for the 256 and 512 μg/mL concentrations were removed from analysis due to vehicle toxicity […]
(§8) CC50 concentrations were determined via the ED50 Plus v1.0 software (https://archive.org/details/ed50v10_zip).

[1] = system: Enterococcus faecalis ATCC 29212; assay: Broth microdilution antibacterial assay; type: cell-based; conditions: for MIC / IC50: Enterococcus faecalis, ATCC29212; for IC50: average of two biological replicates ± S.D. (18: one biological replicate), read-out: IC50; for Selectivity index (CC50/IC50): MRC-5 CC50 / E. faecalis IC50
Protocol: as §1, §2, §3, §4, §5, §6, §7, §8

[2] = system: Klebsiella pneumoniae ATCC 29665; assay: Broth microdilution antibacterial assay; type: cell-based; conditions: for IC50 / MIC: Klebsiella pneumoniae, ATCC29665, K. pneumoniae; for IC50: average of two biological replicates ± S.D., read-out: IC50; for MIC: lowest concentration inhibiting >90% of growth, range from biological replicates, read-out: MIC; for Selectivity index (CC50/IC50): MRC-5 CC50 / K. pneumoniae IC50
Protocol: as §1, §2, §3, §4, §5, §6, §7, §8

[3] = system: Staphylococcus aureus ΔNorA; assay: Broth microdilution antibacterial assay; type: cell-based; conditions: for Selectivity index (CC50/IC50): MRC-5 CC50 / S. aureus ΔNorA IC50; for IC50 / MIC: Staphylococcus aureus
Protocol: as §1, §2, §3, §4, §5, §6, §7, §8

[4] = system: Acinetobacter baumannii ATCC 17978; assay: Broth microdilution antibacterial assay; type: cell-based; conditions: for IC50 / MIC: Acinetobacter baumannii, ATCC17978, A. baumannii; for IC50: average of two biological replicates ± S.D., read-out: IC50; for MIC: lowest concentration inhibiting >90% of growth, range from biological replicates, read-out: MIC; for Selectivity index (CC50/IC50): MRC-5 CC50 / A. baumannii IC50
Protocol: as §1, §2, §3, §4, §5, §6, §7, §8

[5] = system: vancomycin-resistant Enterococcus (VRE); assay: Broth microdilution antibacterial assay; type: cell-based; conditions: for MIC / IC50: Enterococcus, VRE; for IC50: average of two biological replicates ± S.D., read-out: IC50; for Selectivity index (CC50/IC50): MRC-5 CC50 / VRE IC50
Protocol: as §1, §2, §3, §4, §5, §6, §7, §8

S. aureus 8810 = assay: Broth microdilution antibacterial assay; type: cell-based, Staphylococcus aureus; conditions: for Selectivity index (CC50/IC50): MRC-5 CC50 / S. aureus IC50; for IC50 / MIC: Staphylococcus aureus, 8810; for IC50: average of two biological replicates ± S.D., read-out: IC50
Protocol: as §1, §2, §3, §4, §5, §6, §7, §8

[6] = system: methicillin-resistant S. aureus (MRSA) ATCC 43300; assay: Broth microdilution antibacterial assay; type: cell-based, Staphylococcus aureus; conditions: for Selectivity index (CC50/IC50): MRC-5 CC50 / MRSA IC50; for IC50 / MIC: Staphylococcus aureus; for IC50: average of two biological replicates ± S.D., read-out: IC50
Protocol: as §1, §2, §3, §4, §5, §6, §7, §8

in vitro = type: cell-based, human; conditions: human; MRC-5 (lung fibroblast); 24 h; one biological replicate (n = 3); read-out: CC50 for human cells
Protocol: as §4, §5, §6, §7, §8
Figure S41. The effect of compounds on cell viability. The lines represent non -linear regression curves, and error bars represent means ± […]
SD (n=3). […]

[7] = E. faecalis, 24 h, lowest concentration inhibiting >90% of growth, range from biological replicates, read-out: MIC
[8] = average MIC, Table S3, read-out: Average Activity against E. faecalis
[9] = average MIC, Table S3, read-out: Average Activity against VRE
[10] = S. aureus, lowest concentration inhibiting >90% of growth, range from biological replicates, read-out: MIC
[11] = average MIC, Table S3, read-out: Average Activity against S. aureus
[12] = MRSA, lowest concentration inhibiting >90% of growth, range from biological replicates, read-out: MIC
[13] = average MIC, Table S3, read-out: Average Activity against MRSA

CN(C)C(=O)[C@H]1O[C@@H](n2ccc(N)nc2=O)C=C[C@@H]1NC(=O)C[C@@H](N)CCN(C)C(=N)N [Compound 18]
Selectivity index (CC50/IC50) (Pseudomonas aeruginosa): 3.4 | MIC (Pseudomonas aeruginosa): 64 to 128 µg/mL (≈ 142 to 285 µM) | IC50 (Pseudomonas aeruginosa; P. aeruginosa): 18.8 ± 2.6 µg/mL (≈ 41.8 µM) | MIC [1, 7]: 16 to 32 µg/mL (≈ 35.6 to 71.2 µM) | IC50 ([1]; E. faecalis): 17 µg/mL (≈ 37.8 µM) | MIC [1, 8]: 32 µg/mL (≈ 71.2 µM) | Selectivity index (CC50/IC50) [1]: 3.7 ^b | IC50 [2]: 60.1 ± 4.7 µg/mL (≈ 134 µM) | MIC [2]: 256 µg/mL (≈ 570 µM) | Selectivity index (CC50/IC50) [2]: 1.1 | Selectivity index (CC50/IC50) [3]: 3.5 | IC50 [3]: 18.3 ± 1.4 µg/mL (≈ 40.7 µM) | MIC [3]: 128 µg/mL (≈ 285 µM) | IC50 [4]: 46.4 ± 7 µg/mL (≈ 103 µM) | MIC [4]: 256 µg/mL (≈ 570 µM) | Selectivity index (CC50/IC50) [4]: 1.4 | MIC ([5]; 24 h): 64 to 128 µg/mL (≈ 142 to 285 µM) | MIC [5, 9]: 96 µg/mL (≈ 214 µM) | IC50 [5]: 27.7 ± 11 µg/mL (≈ 61.6 µM) | Selectivity index (CC50/IC50) [5]: 2.3 | Selectivity index (CC50/IC50) (S. aureus 8810): 9.1 | IC50 (S. aureus 8810; S. aureus): 7 ± 1.5 µg/mL (≈ 15.6 µM) | MIC (S. aureus 8810; [10]): 64 µg/mL (≈ 142 µM) | MIC (S. aureus 8810; [11]): 64 µg/mL (≈ 142 µM) | Selectivity index (CC50/IC50) [6]: 5.0 | IC50 ([6]; MRSA): 12.8 ± 1.9 µg/mL (≈ 28.5 µM) | MIC [6, 12]: 32 µg/mL (≈ 71.2 µM) | MIC [6, 13]: 32 µg/mL (≈ 71.2 µM) | CC50 at 24 h (in vitro): 63.9 µg/mL (≈ 142 µM)

C#CCNC(=O)[C@H]1O[C@@H](n2ccc(N)nc2=O)C=C[C@@H]1NC(=O)C[C@@H](N)CCN(C)C(=N)N [Compound 19]
Selectivity index (CC50/IC50) (Pseudomonas aeruginosa): 2.1 | IC50 (Pseudomonas aeruginosa; P. aeruginosa): 16.1 ± 0.9 µg/mL (≈ 35 µM) | MIC (Pseudomonas aeruginosa; P. aeruginosa, lowest concentration inhibiting >90% of growth, range from biological replicates, read-out: MIC): 64 µg/mL (≈ 139 µM) | MIC [1, 7]: 16 to 32 µg/mL (≈ 34.8 to 69.6 µM) | IC50 ([1]; E. faecalis): 7.6 ± 1.5 µg/mL (≈ 16.5 µM) | MIC [1, 8]: 16 µg/mL (≈ 34.8 µM) | Selectivity index (CC50/IC50) [1]: 4.4 | IC50 [2]: 40.4 ± 6.2 µg/mL (≈ 87.9 µM) | MIC [2]: 128 µg/mL (≈ 279 µM) | Selectivity index (CC50/IC50) [2]: 0.8 | Selectivity index (CC50/IC50) [3]: 2.0 | IC50 [3]: 16.2 ± 0.9 µg/mL (≈ 35.3 µM) | MIC [3]: 64 to 128 µg/mL (≈ 139 to 279 µM) | IC50 [4]: 21.1 ± 3.9 µg/mL (≈ 45.9 µM) | MIC [4]: 128 µg/mL (≈ 279 µM) | Selectivity index (CC50/IC50) [4]: 1.6 | MIC [5, 9]: 64 µg/mL (≈ 139 µM) | MIC ([5]; 24 h, lowest concentration inhibiting >90% of growth, range from biological replicates, read-out: MIC): 64 µg/mL (≈ 139 µM) | IC50 [5]: 21.1 ± 4.8 µg/mL (≈ 45.9 µM) | Selectivity index (CC50/IC50) [5]: 1.6 | Selectivity index (CC50/IC50) (S. aureus 8810): 9.2 | IC50 (S. aureus 8810; S. aureus): 3.6 ± 0.3 µg/mL (≈ 7.83 µM) | MIC (S. aureus 8810; [10]): 32 µg/mL (≈ 69.6 µM) | MIC (S. aureus 8810; [11]): 32 µg/mL (≈ 69.6 µM) | Selectivity index (CC50/IC50) [6]: 4.8 | IC50 ([6]; MRSA): 6.9 ± 1.2 µg/mL (≈ 15 µM) | MIC [6, 12]: 16 to 32 µg/mL (≈ 34.8 to 69.6 µM) | MIC [6, 13]: 24 µg/mL (≈ 52.2 µM) | CC50 at 24 h (in vitro): 33.1 µg/mL (≈ 72 µM)
